Test results as given in patent publication US20220040123A1, “ANTI-HELICOBACTER FOOD COMPOSITION COMPRISING BETA-CARYOPHYLLENE” (priority 2018, published 2022).

Key:
[1] = tested on: virB2, virB4, virB5, virB6, virB7, virB8, virB9, virB10 and virD4 genes; assay: RT-PCR of type IV secretion system (T4SS) genes; assay type: cell-based, Helicobacter pylori; conditions: 31.25-500 μg/ml
Experimental: In order to evaluate the inhibitory effect of beta-caryophyllene against the CagA toxin injection ability of Helicobacter pylori, expression of virB2, virB4, virB5, virB6, virB7, virB8, virB9, virB10 and virD4 genes associated with the type IV secretion system (T4SS) structure required to inject the CagA toxin into a host cell was analyzed, and the results are shown in FIG. 11. Specifically, Helicobacter pylori was treated with beta-caryophyllene at concentrations of 31.25, 62.5, 125, 250 and 500 μg/ml, and expression of the genes was analyzed by RT-PCR.

[2] = tested on: Helicobacter pylori-infected people; assay: Human test, changes in digestive system symptoms; assay type: in vivo; conditions: 8 weeks
Experimental: In order to verify the anti-Helicobacter pylori effect of beta-caryophyllene, beta-caryophyllene was administered to 16 semi-healthy people (Helicobacter pylori-infected people) complaining of gastrointestinal disorders, at a dose of 126 mg/day once a day for 8 weeks before meals, and changes in digestive system symptoms (nausea, epigastric pain, heartburn, acid regurgitation, and indigestion) were evaluated, and the results are shown in Table 5.

H. pylori = assay: Minimum growth inhibitory concentration test (absorbance at 650 nm after 72 hours); assay type: cell-based, Helicobacter pylori (ATCC 49503); conditions: Mueller Hinton broth with 10% bovine serum, absorbance 650 nm
Experimental: For H. pylori culture, an H. pylori (ATCC 49503) strain was inoculated on a Brucella agar medium containing 10% bovine serum and antibiotics (vancomycin, esfsuldin, trimethoprim, and amphotericin B), and cultured in an anaerobic incubator which maintains 10% CO2, 5% O2, 85% N2, and 97% or more humidity, at 37° C. for 72 hours. For a minimum growth inhibitory concentration test, each of 7.81, 15.63, 31.25, 62.5, 125, 250 and 500 μg and 1, 2 and 4 mg of beta-caryophyllene was added to a medium obtained by adding 10% bovine serum to Mueller Hinton broth, and then cultured in a CO2 incubator at a relative humidity of 100% for 72 hours. Each of the bacterial solutions cultured for 72 hours was measured for absorbance at 650 nm using a spectrophotometer to determine the minimum inhibitory concentration (MIC) of beta-caryophyllene, and the results are graphically shown in FIG. 2.

[3] = tested on: Helicobacter pylori 16S rRNA; assay: qPCR test for gastric mucosal Helicobacter pylori (16S rRNA); assay type: in vivo, C57BL/6 mouse; conditions: for Gene expression level (Ct): 28 days, 16S rRNA vs 18SrRNA, control G3 13.80
Experimental: In order to compare the Helicobacter pylori eradiation effect between beta-caryophyllene and the antibiotics that are used for treatment of Helicobacter pylori infection, an animal test was performed using the test groups and doses shown in Table 1 below.
Each test substance was suspended in an excipient according to the dose and administered to each mouse once a day at the same time every day for a total of 28 days in a dose of 5 ml per kg mouse (C57BL/6 mouse) by oral gavage method.
After completion of the test, RNA was collected from the aseptically collected gastric mucosal tissue, and then synthesized into DNA to perform a PCR test. The marker gene used in this experiment was 16S rRNA, which is specifically found only in H. pylori and is not found in humans or mice. 18SrRNA was used as a loading control gene of the used DNA sample. The Ct value for each gene was obtained by reacting the fluorescent intercalator SYBR Green with the corresponding primer and DNA, and then calculated by relative quantification, and the results are shown in Table 4 below.

Helicobacter pylori = assay: Immunohistochemical staining of gastric mucosa and submucosal layer with Helicobacter pylori-specific antibody; assay type: in vivo, Mongolian gerbils
Experimental: Mongolian gerbils were infected with a Helicobacter pylori strain (ATCC 49503) and then subjected to two weeks of acclimatization. To this end, the animals were fasted for 12 hours before and after inoculation with the Helicobacter pylori strain. 500 μl (1×10^9 CFU) of a bacterial suspension was prepared by suspending H. pylori in sterile physiological saline to a concentration of 2×10^9 CFU/ml and introduced directly into the stomach by using a feeding needle. For stable infection, the H. pylori strain was dispensed three times at 48 hour-intervals.
Beta-caryophyllene was administered directly into the gastrointestinal at doses of 100 mg/kg and 500 mg/kg for the low and high dose groups, respectively, for 12 weeks after two weeks after infection with H. pylori. The same amount of corn oil as the beta-caryophyllene was administered to each of the non-infected group and the infected group.
At weeks 0, 6 and 12 of the experiment, a paraffin block was prepared from with the stomach tissue of the infected animal model, and then stomach tissue slide sample with a thickness of 2 μm was prepared from the paraffin block using a microtome (Leica). For immunohistochemical staining, the slide was deparaffinized, heated with citrate buffer in a bath for 20 minutes, and then subjected to immunohistochemical staining using an IHC kit (Vectastain ABC kit, Vector). […]

[4] = tested on: dnaA, dnaN, holB and polA genes; assay: Expression of DNA synthesis-related genes of H. pylori; assay type: cell-based, Helicobacter pylori; conditions: 31.25-500 μg/ml
Experimental: DNA replication is essential for the proliferation of Helicobacter pylori, and RNA synthesis (transcription process) is a process essential for protein synthesis in organisms. Thus, unless normal RNA synthesis occurs, normal life activity cannot be maintained. Accordingly, in order to evaluate the inhibitory effect of beta-caryophyllene against the proliferation of H. pylori, H. pylori was treated with beta-caryophyllene at concentrations of 31.25, 62.5, 125, 250 and 500 μg/ml, and changes in the expression of the DNA synthesis-related genes dnaA, dnaN, holB and polA were analyzed, and the results are shown in FIG. 10.

[5] = 126 mg/day, after vs before intake

In the case of `C=C1CC/C=C(\C)CC[C@@H]2[C@@H]1CC2(C)C` [beta-caryophyllene], the “expression of virB2 gene” value [1] is reported as “significantly decreased”, the “expression of virB4 gene” value [1] is reported as “significantly decreased” and the “expression of virB8 gene” value [1] is reported as “significantly decreased”. For the same molecule, the “Nausea, After intake” value ([2]; 126 mg/day once a day, 16 people, before intake 0.19) was 0.06, the “Acid regurgitation, After intake” value ([2]; 126 mg/day once a day, 16 people, before intake 0.25) was 0.06 and the “Indigestion, After intake” value ([2]; 126 mg/day once a day, 16 people, before intake 0.56) was 0.13. The “Heartburn, After intake” value ([2]; 126 mg/day once a day, 16 people, before intake 0.88) was 0.38, the “Epigastric pain, After intake” value ([2]; 126 mg/day once a day, 16 people, before intake 1.31) was 0.44 and the “Acid regurgitation, Improvement rate (%)” value [2, 5] was 76%. For the same molecule, the “Epigastric pain, Improvement rate (%)” value [2, 5] was 66.4%, the “Heartburn, Improvement rate (%)” value [2, 5] was 56.8% and the “Indigestion, Improvement rate (%)” value [2, 5] was 76.8%. The “Nausea, Improvement rate (%)” value [2, 5] was 68.4%, the “improvement of Helicobacter pylori-induced gastrointestinal disorders” value ([2]; 126 mg/day, all five symptoms of Table 5) was no less than 56% and the “minimum inhibitory concentration (MIC) against H. pylori” value (H. pylori) was 1 mg. For the same molecule, the “Gene expression level (Ct)” value ([3]; G6: 100 mg/kg/day) was 11.99 Ct, the “decrease of Ct value compared to G3” value ([3]; G6: 100 mg/kg/day, not statistically significant) was 13.1% and the “Gene expression level (Ct)” value ([3]; G7: 200 mg/kg/day) was 9.40 Ct. For the same molecule, the “decrease of Ct value compared to G3” value ([3]; G7: 200 mg/kg/day, not statistically significant) was 31.9%, the “Gene expression level (Ct)” value ([3]; G8: 500 mg/kg/day) was 5.71 Ct and the “decrease of Ct value compared to G3” value ([3]; G8: 500 mg/kg/day, statistically significant) was 58.6%. The “Helicobacter pylori infection in gastric mucosa and submucosal layer (IHC)” value (Helicobacter pylori; week 6, low dose (100 mg/kg) and high dose (500 mg/kg) groups vs infected group) was “significantly decreased”, the “Helicobacter pylori detection in gastric mucosa (IHC)” value (Helicobacter pylori; week 12, low dose (100 mg/kg) and high dose (500 mg/kg) groups vs infected group) was “hardly detected” and the “expression of dnaA gene” value [4] was “increased”. The “expression of dnaN gene” value [4] was “significantly decreased”, the “expression of holB gene” value [4] was “significantly decreased” and the “expression of polA gene” value [4] was “increased”.
